Results as given in PubChem BioAssay AID256 (DTP/NCI, 2004).
Where “and” joins values, the source holds several entries; their conditions need not be identical. Equal entries are not always repeated. Toxic doses and inconclusive results are not listed. Rule for the calls: active = survival T/C of 150% or more; inactive = T/C below 125% in these data.

Test system: CD2F1 mice, L1210 leukemia ip, survival T/C
Assay: NCI In Vivo Anticancer Drug Screen. Data for tumor model L1210 Leukemia (intraperitoneal) in CD2F1 (CDF1) mice
Conditions: higher = longer survival
Outline: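 Vehicle-treated tumor-bearing mice served as controls (C) for compound-treated mice (T). Reported figure is T divided by C.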

[1] = endpoint: mean survival time, dose: 100.0 mg/kg/injection, schedule: Q01DX001 (ip), vehicle: saline
[2] = endpoint: mean survival time, dose: 200.0 mg/kg/injection, schedule: Q01DX001 (ip), vehicle: saline
[3] = endpoint: mean survival time, dose: 400.0 mg/kg/injection, schedule: Q01DX001 (ip), vehicle: saline
[4] = endpoint: mean survival time, dose: 100.0 mg/kg/injection, schedule: Q04DX003 (ip), vehicle: saline with Tween-80
[5] = endpoint: mean survival time, dose: 200.0 mg/kg/injection, schedule: Q04DX003 (ip), vehicle: saline with Tween-80
[6] = endpoint: mean survival time, dose: 400.0 mg/kg/injection, schedule: Q04DX003 (ip), vehicle: saline with Tween-80
[7] = endpoint: mean survival time, dose: 100.0 mg/kg/injection, schedule: Q01DX009 (ip), vehicle: saline with Tween-80
[8] = endpoint: mean survival time, dose: 100.0 mg/kg/injection, schedule: Q04DX003 (ip), vehicle: saline
[9] = endpoint: mean survival time, dose: 200.0 mg/kg/injection, schedule: Q01DX009 (ip), vehicle: saline with Tween-80
[10] = endpoint: mean survival time, dose: 200.0 mg/kg/injection, schedule: Q04DX003 (ip), vehicle: saline
[11] = endpoint: mean survival time, dose: 400.0 mg/kg/injection, schedule: Q01DX009 (ip), vehicle: saline with Tween-80

Measured: T/C

CC(=O)Nc1ccc(C)cc1C
inactive: endpoint: mean survival time, dose: 100.0 mg/kg/injection, schedule: Q04DX003 (ip), vehicle: Klucel (hydroxypropylcellulose) (HPC) 94 % of control | endpoint: mean survival time, dose: 200.0 mg/kg/injection, schedule: Q04DX003 (ip), vehicle: Klucel (hydroxypropylcellulose) (HPC) 103 % of control | endpoint: mean survival time, dose: 400.0 mg/kg/injection, schedule: Q04DX003 (ip), vehicle: Klucel (hydroxypropylcellulose) (HPC) 97 % of control

O=[N+]([O-])c1ccccc1N/N=C/c1ccccc1
inactive: [1] 100 % of control | [2] 97 % of control | [3] 97 % of control

CC(C)(Br)C(=O)c1ccco1
inactive: endpoint: mean survival time, dose: 100.0 mg/kg/injection, schedule: Q04DX003 (ip), vehicle: saline sonified 101 % of control | endpoint: mean survival time, dose: 200.0 mg/kg/injection, schedule: Q04DX003 (ip), vehicle: saline sonified 102 % of control | endpoint: mean survival time, dose: 400.0 mg/kg/injection, schedule: Q04DX003 (ip), vehicle: saline sonified 95 % of control

COc1cc(C=O)ccc1OC1OC(C(COC(C)=O)OC(C)=O)C(OC(C)=O)C(OC(C)=O)C1OC(C)=O (configuration not stated)
inactive: endpoint: mean survival time, dose: 50.0 mg/kg/injection, schedule: Q01DX001 (ip), vehicle: saline with Tween-80 93 % of control | endpoint: mean survival time, dose: 100.0 mg/kg/injection, schedule: Q01DX001 (ip), vehicle: saline with Tween-80 88 % of control | endpoint: mean survival time, dose: 200.0 mg/kg/injection, schedule: Q01DX001 (ip), vehicle: saline with Tween-80 88 % of control

Cc1cc(O)c(O)c(C(C)(C)CC(C)(C)C)c1
inactive: endpoint: mean survival time, dose: 12.5 mg/kg/injection, schedule: Q01DX009 (ip), vehicle: saline + alcohol 100 % of control | endpoint: mean survival time, dose: 25.0 mg/kg/injection, schedule: Q01DX009 (ip), vehicle: saline + alcohol 97 % of control | endpoint: mean survival time, dose: 50.0 mg/kg/injection, schedule: Q01DX009 (ip), vehicle: saline + alcohol 103 % of control | endpoint: mean survival time, dose: 100.0 mg/kg/injection, schedule: Q04DX003 (ip), vehicle: saline + alcohol 105 % of control | endpoint: mean survival time, dose: 200.0 mg/kg/injection, schedule: Q04DX003 (ip), vehicle: saline + alcohol 103 % of control | endpoint: mean survival time, dose: 400.0 mg/kg/injection, schedule: Q04DX003 (ip), vehicle: saline + alcohol 100 % of control

CC(=O)OCC1OC(n2cnc3[nH]c(=S)[nH]c(=S)c32)C(OC(C)=O)C1OC(C)=O (configuration not stated)
inactive: [1] 103 % of control | [2] 96 % of control | [3] 97 % of control

CC(C)c1ccc(C(=O)C(O)c2ccc(C(C)C)cc2)cc1 (configuration not stated)
inactive: [4] 102 % of control | [5] 102 % of control | [6] 95 % of control

CCOC(=O)C1(C(=O)OCC)C2CC=CCC21 (configuration not stated)
inactive: endpoint: mean survival time, dose: 50.0 mg/kg/injection, schedule: Q01DX009 (ip), vehicle: acetone 100 % of control | endpoint: mean survival time, dose: 100.0 mg/kg/injection, schedule: Q01DX009 (ip), vehicle: acetone 92 % of control | endpoint: mean survival time, dose: 200.0 mg/kg/injection, schedule: Q01DX009 (ip), vehicle: acetone 97 % of control

Cc1cc(N(CCOS(C)(=O)=O)CCOS(C)(=O)=O)ccc1C=Nc1ccc(-c2nc(Cc3ccccc3)sc2C)cc1
inactive: endpoint: mean survival time, dose: 12.5 mg/kg/injection, schedule: Q01DX009 (ip), vehicle: Klucel (hydroxypropylcellulose) (HPC) 103 % of control and 106 % of control | endpoint: mean survival time, dose: 25.0 mg/kg/injection, schedule: Q01DX009 (ip), vehicle: Klucel (hydroxypropylcellulose) (HPC) 117 % of control and 124 % of control | endpoint: mean survival time, dose: 50.0 mg/kg/injection, schedule: Q01DX009 (ip), vehicle: Klucel (hydroxypropylcellulose) (HPC) 117 % of control and 111 % of control | endpoint: mean survival time, dose: 100.0 mg/kg/injection, schedule: Q01DX009 (ip), vehicle: Klucel (hydroxypropylcellulose) (HPC) 118 % of control and 120 % of control | endpoint: mean survival time, dose: 200.0 mg/kg/injection, schedule: Q01DX009 (ip), vehicle: Klucel (hydroxypropylcellulose) (HPC) 110 % of control | endpoint: mean survival time, dose: 400.0 mg/kg/injection, schedule: Q01DX009 (ip), vehicle: Klucel (hydroxypropylcellulose) (HPC) 103 % of control

CCOC(=O)CSc1ccc(F)cc1
inactive: [1] 90 % of control | [2] 100 % of control | [3] 91 % of control

CC(C)(CCC(=O)O)C(=O)O
inactive: endpoint: mean survival time, dose: 50.0 mg/kg/injection, schedule: Q01DX009 (ip), vehicle: saline with Tween-80 100 % of control | [7] 98 % of control | [8] 102 % of control | [9] 98 % of control | [10] 96 % of control

O=S(=O)(O)SNCCN1CCOCC1
inactive: endpoint: mean survival time, dose: 6.25 mg/kg/injection, schedule: Q01DX009 (ip), vehicle: saline 106 % of control | endpoint: mean survival time, dose: 6.25 mg/kg/injection, schedule: Q04DX003 (ip), vehicle: saline 104 % of control | endpoint: mean survival time, dose: 12.5 mg/kg/injection, schedule: Q01DX009 (ip), vehicle: saline 98 % of control | endpoint: mean survival time, dose: 12.5 mg/kg/injection, schedule: Q04DX003 (ip), vehicle: saline 102 % of control | endpoint: mean survival time, dose: 25.0 mg/kg/injection, schedule: Q01DX009 (ip), vehicle: saline 107 % of control | endpoint: mean survival time, dose: 25.0 mg/kg/injection, schedule: Q04DX003 (ip), vehicle: saline 101 % of control

O=C1CCC(=O)N1CCC1=NCCc2cc(OCc3ccccc3)ccc21
inactive: [7] 101 % of control | [4] 102 % of control | [9] 94 % of control | [5] 94 % of control | [11] 97 % of control | [6] 90 % of control

COC(=O)C12OCC34C(CC5C(C)C6=CC(=O)OC6=CC5(C)C3C(O)C1O)OC(=O)C(OC(C)=O)C24 (configuration not stated)
inactive: endpoint: median survival time, dose: 0.13 mg/kg/injection, schedule: Q01DX009 (ip), vehicle: saline + alcohol 98 % of control | endpoint: median survival time, dose: 0.25 mg/kg/injection, schedule: Q01DX009 (ip), vehicle: saline + alcohol 98 % of control | endpoint: median survival time, dose: 0.5 mg/kg/injection, schedule: Q01DX009 (ip), vehicle: saline + alcohol 98 % of control | endpoint: median survival time, dose: 1.0 mg/kg/injection, schedule: Q01DX009 (ip), vehicle: saline + alcohol 100 % of control | endpoint: median survival time, dose: 2.0 mg/kg/injection, schedule: Q01DX009 (ip), vehicle: saline + alcohol 102 % of control and 103 % of control | endpoint: median survival time, dose: 4.0 mg/kg/injection, schedule: Q01DX009 (ip), vehicle: saline + alcohol 102 % of control | endpoint: median survival time, dose: 8.0 mg/kg/injection, schedule: Q01DX009 (ip), vehicle: saline + alcohol 94 % of control | endpoint: median survival time, dose: 16.0 mg/kg/injection, schedule: Q01DX009 (ip), vehicle: saline + alcohol 96 % of control

N#CCc1ccc(N=Nc2c(N)nc(N)[nH]c2=O)cc1
inactive: [7] 99 % of control | [9] 96 % of control | [11] 87 % of control

COc1ccc(Cc2nnc(Cc3ccc(OC)c(OC)c3)nn2)cc1OC
inactive: [4] 101 % of control | [5] 93 % of control

CNC(=O)Oc1c(Cl)c(C(Cl)(Cl)Cl)nc2ccccc12
inactive: endpoint: mean survival time, dose: 25.0 mg/kg/injection, schedule: Q04DX003 (ip), vehicle: saline with Tween-80 96 % of control | endpoint: mean survival time, dose: 50.0 mg/kg/injection, schedule: Q04DX003 (ip), vehicle: saline with Tween-80 97 % of control | [4] 89 % of control

O=[N+]([O-])c1cc(Br)ccc1P(=O)(O)O
inactive: endpoint: mean survival time, dose: 50.0 mg/kg/injection, schedule: Q04DX003 (ip), vehicle: saline 95 % of control | [8] 96 % of control | [10] 93 % of control

C=C(Cl)CN(CCCC(=O)O)c1ccccc1
inactive: endpoint: mean survival time, dose: 25.0 mg/kg/injection, schedule: Q01DX009 (ip), vehicle: other 95 % of control | endpoint: mean survival time, dose: 50.0 mg/kg/injection, schedule: Q01DX009 (ip), vehicle: other 89 % of control | endpoint: mean survival time, dose: 100.0 mg/kg/injection, schedule: Q01DX009 (ip), vehicle: other 97 % of control

CN(N=O)C(=O)NCC1OC(OC2(CNC(=O)N(C)N=O)OC(CNC(=O)N(C)N=O)C(O)C2O)C(O)C(O)C1O (configuration not stated)
inactive: endpoint: mean survival time, dose: 12.5 mg/kg/injection, schedule: Q01DX009 (ip), vehicle: water 102 % of control | endpoint: mean survival time, dose: 25.0 mg/kg/injection, schedule: Q01DX009 (ip), vehicle: water 104 % of control | endpoint: mean survival time, dose: 50.0 mg/kg/injection, schedule: Q01DX009 (ip), vehicle: water 110 % of control | endpoint: mean survival time, dose: 100.0 mg/kg/injection, schedule: Q01DX009 (ip), vehicle: water 117 % of control

CCC(C)(C)c1ccc(O)cc1
inactive: [4] 104 % of control | [5] 98 % of control

CC(C)C1CCC(C)(Cl)C2CCC(C)(Cl)CC12 (configuration not stated)
inactive: [4] 96 % of control | [8] 104 % of control | [5] 91 % of control | [10] 102 % of control | [6] 93 % of control | endpoint: mean survival time, dose: 400.0 mg/kg/injection, schedule: Q04DX003 (ip), vehicle: saline 95 % of control
